Assay results reported in ChEMBL document CHEMBL1126436, “Taxol Photoaffinity Label: 7-(p-Azidobenzoyl)taxol Synthesis and Biological Evaluation” (1992).

Tests used:
B16 = assay: Compound was evaluated for the concentration which inhibits B16 melanoma cell proliferation by 50%; assay type: functional; conditions: Mus musculus, read-out: ED50 (the source's name)
Tubulin = assay: Compound was evaluated for the in vitro concentration required to produce 50% stimulation of the microtubule assembly; conditions: read-out: ED50 (the source's name)

EC50 (B16) [nM] | EC50 (Tubulin) [nM] | Structure (SMILES)
957 | 15000 | CC(=O)O[C@H]1C(=O)[C@]2(C)[C@@H](OC(=O)c3ccc(N=[N+]=[N-])cc3)C[C@H]3OC[C@@]3(OC(C)=O)[C@H]2[C@H](OC(=O)c2ccccc2)[C@]2(O)C[C@H](OC(=O)[C@H](O)C(NC(=O)c3ccccc3)c3ccccc3)C(C)=C1C2(C)C (some centres undefined)
31.5 | 700 | CC(=O)O[C@H]1C(=O)[C@@]2(C)[C@H]([C@H](OC(=O)c3ccccc3)[C@]3(O)C[C@H](OC(=O)[C@H](O)[C@@H](NC(=O)c4ccccc4)c4ccccc4)C(C)=C1C3(C)C)[C@]1(OC(C)=O)CO[C@@H]1C[C@@H]2O [PACLITAXEL]
